From article PMC12027992, “New Amidino-Substituted Benzimidazole Derivatives as Human Dipeptidyl Peptidase III Inhibitors: Synthesis, In Vitro Evaluation, QSAR, and Molecular Docking Studies” (International Journal of Molecular Sciences, 2025)
Values joined by “and” are separate entries in the source; they are usually repeats but may differ in a detail not shown here. Equal values may be shown once. Where a name gives a salt, the structure may show the parent alone. Residues, ends and D or L forms follow the SMILES beside them.

Legend:
hDPP III = molecular target: hDPP III; design: method as in PMID 18163885; conditions: read-out: inhibition constant (Ki); cited from earlier work
human DPP III = molecular target: T1, human DPP III (Homo sapiens, UniProt Q9NY33); assay: hDPP III enzyme activity assay (% inhibition and IC50), substrate Arg-Arg-2-naphthylamide; type: biochemical; conditions: for IC50: at least seven concentrations, nonlinear regression, three replicates; for log % inh. exp.: logarithm of % inhibition at 30 μmol L^–1; for inhibition at 30 µM: pH 7.4, 30 μmol L^–1 compound, recombinant hDPP III 0.75 nM, Arg-Arg-2-naphthylamide 40 μM, pH 7.4, 37 °C, average of three determinations ± SD
T1 construct: C-terminally truncated human DPP III was expressed and purified as described previously; His-tag (TEV-cleavable) (C, cleaved yes); made in house; host or cells: E. coli BL21-CodonPlus (DE3)-RIL
T1 sequence (Q9NY33 1-726 limits assumed): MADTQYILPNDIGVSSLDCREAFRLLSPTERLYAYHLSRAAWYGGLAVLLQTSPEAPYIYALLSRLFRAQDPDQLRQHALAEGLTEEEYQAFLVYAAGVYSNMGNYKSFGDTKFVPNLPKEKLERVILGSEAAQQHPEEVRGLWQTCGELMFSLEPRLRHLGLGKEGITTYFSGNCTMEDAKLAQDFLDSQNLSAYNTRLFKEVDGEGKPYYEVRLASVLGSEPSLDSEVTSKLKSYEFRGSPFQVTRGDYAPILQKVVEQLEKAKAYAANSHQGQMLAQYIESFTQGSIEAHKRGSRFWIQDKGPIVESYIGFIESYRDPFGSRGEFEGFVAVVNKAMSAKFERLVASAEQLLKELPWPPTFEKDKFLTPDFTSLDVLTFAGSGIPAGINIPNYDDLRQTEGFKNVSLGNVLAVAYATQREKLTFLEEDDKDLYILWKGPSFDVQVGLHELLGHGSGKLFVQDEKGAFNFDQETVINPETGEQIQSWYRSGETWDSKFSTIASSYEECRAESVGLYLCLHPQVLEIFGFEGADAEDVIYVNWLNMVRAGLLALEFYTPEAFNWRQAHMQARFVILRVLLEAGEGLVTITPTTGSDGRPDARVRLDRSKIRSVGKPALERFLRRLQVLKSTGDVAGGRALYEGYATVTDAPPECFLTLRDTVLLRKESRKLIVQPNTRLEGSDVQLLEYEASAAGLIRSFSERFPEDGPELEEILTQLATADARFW
Procedure: C-terminally truncated human DPP III was expressed and purified as described previously. In brief, C-terminal HIS-tagged recombinant human DPP III was expressed in E. coli BL21-CodonPlus (DE3)-RIL cells, Agilent (Santa Clara, CA, USA). Overexpression was induced by 0.25 mM isopropyl-b-D-1-thiogalactopyranoside (IPTG, Fermentas), and the cells were grown for 20 h at 18 °C and 130 rpm. Obtained bacterial cells were lysed by a combination of lysozyme lysis and sonication, then treated with DNase I and centrifuged at 4000× g for 15 min to precipitate the cell debris. The lysate was purified by affinity chromatography on a Ni-NTA column (5 mL prepacked His-trap FF) GE Healthcare (Chicago, IL, USA) using a buffer system with 50 mM Tris- HCl, pH = 8.0, 300 mM NaCl, and increasing imidazole concentrations: 10 mM for lysis, 20 mM for wash, and 300 mM for elution buffer. All hDPP III active fractions were pooled and incubated with TEV protease to remove the HIS-tag. Human DPP III was recovered using flow-through affinity chromatography (TEV protease is His-tagged), and additionally purified on a 16/60 Superdex-200 gel-filtration column GE Healthcare (Chicago, IL, USA). Fractions with hDPP III were desalted on PD-10 columns GE Healthcare (Chicago, IL, USA). Purified protein in 20 mM Tris-HCl buffer pH = 7.4 was stored at -80 °C until use. Recombinant hDPP III (0.75 nM) was preincubated with benzimidazole derivatives (30 μM) first for 10 min at 25 °C and then for 5 min at 37 °C in 50 mM Tris-HCl buffer, pH 7.4. The enzymatic reaction was started with Arg-[…]-naphthylamide (40 μM) as a substrate, and after the 15 min incubation at 37 °C in a water bath, the reaction was stopped, and the absorbance was measured using the spectrophotometric method described by Abramić et al.. All benzimidazole derivatives were prepared daily in dimethyl sulfoxide, and the resulting stock solutions (4 mM) were transparent, without turbidity or solid residue. […] Before the enzyme assay, stock solutions were diluted with 50 mM Tris-HCl buffer, pH 7.4. […] The percentage of enzyme inhibition under at least seven different concentration gradients was imported into GraphPad Prism 10.4.1 software to calculate IC50 values of the compounds using nonlinear regression analysis from the mean inhibitory value of three replicates. The relative occupancy of inhibition for compounds with the same substituent at position 6 of the benzimidazole core was defined as the sum of their % inh., expressed relative to their maximum achievable inhibition, which was set at 100.

H460 = system: H460; design: method as in doi:10.5562/cca3531; conditions: cited from earlier work
HCT116 = system: HCT116; design: method as in doi:10.5562/cca3531; conditions: cited from earlier work
MCF-7 = system: MCF-7; design: method as in doi:10.5562/cca3531; conditions: cited from earlier work

Structure (SMILES)	Ki (hDPP III) [µM]	IC50 (human DPP III)	log % inh. exp. (human DPP III)	inhibition at 30 µM (human DPP III) [%]	antiproliferative activity (H460)	antiproliferative activity (HCT116)	antiproliferative activity (MCF-7)
N[C@@H](Cc1ccc(O)cc1)C(=O)N[C@@H](Cc1ccccc1)C(=O)NO [Tyr-Phe-NHOH] (HELM PEPTIDE1{Y.F.[ON[*:1]]}$$$$V2.0)	0.15 ± 0.04	–	–	–	–	–	–
CCN(CC)c1ccc(-c2nc3ccc(C(=N)N)cc3[nH]2)c(O)c1 [a2, 5(6)-amidino-2-[4-(N,N-diethylamino)-2-hydroxyphenyl]benzimidazole hydrochloride]	–	< 20 µM and 8.44 µM	2.00	≥ 90	–	–	–
N=C(N)c1ccc2nc(-c3ccc(-c4cccs4)s3)[nH]c2c1 [a4]	–	< 20 µM and 8.34 µM	2.00	≥ 90	–	–	–
N=C(N)c1ccc2nc(-c3ccc(C(F)(F)F)cc3)[nH]c2c1 [a6]	–	< 20 µM and 9.83 µM	1.99	≥ 90	displayed antiproliferative activity	displayed antiproliferative activity	displayed antiproliferative activity
c1ccc2c(c1)cc(-c1nc3cc(C4=NCCN4)ccc3[nH]1)c1ccccc12 [b2, 5(6)-(2-imidazolinyl)-2-(phenanthren-9-yl)-1H-benzo[d]imidazole]	–	< 20 µM and 11.1 µM	2.00	≥ 90	–	–	–
c1csc(-c2ccc(-c3nc4ccc(C5=NCCN5)cc4[nH]3)s2)c1 [b4]	–	< 20 µM and 4.98 µM	2.00	≥ 90	–	–	–
FC(F)(F)c1ccc(-c2nc3ccc(C4=NCCN4)cc3[nH]2)cc1 [b6]	–	< 20 µM and 8.18 µM	2.00	≥ 90	displayed antiproliferative activity	displayed antiproliferative activity	displayed antiproliferative activity
Oc1ccc(-c2nc3ccc(C4=NCCN4)cc3[nH]2)c(O)c1O [b13, 5(6)-(4,5-Dihydro-1H-imidazol-3-ium-2-yl)-2-(2,3,4-trihydroxyphenyl)benzimidazole chloride]	–	< 20 µM and 1.03 µM	2.00	≥ 90	–	–	–
c1ccc2c(c1)cc(-c1nc3cc(C4=NCCCN4)ccc3[nH]1)c1ccccc12 [c8]	–	–	1.71	51.7 ± 0.2	–	–	–
